Measured values taken from patent US5384408A, “Substituted pyrazine and its salts, compositions containing them and their use in medicine” (priority 1993, dated 1995).
“Also recorded” adds a separate entry of the source. Where two headings read alike, the source gives them in different places.

Columns and labels:
[1] = target: T1, M3 (ileum) (Cavia porcellus, UniProt H0W1Z3); experiment: functional selectivity, ileum M3 antagonist activity (methods of J. Med. Chem. 1987, 30, 969-975); assay type: biochemical, guinea pig
T1 construct: guinea pig heart and guinea pig ileum; from tissue; host or cells: guinea pig ileum
T1 sequence (H0W1Z3 1-590): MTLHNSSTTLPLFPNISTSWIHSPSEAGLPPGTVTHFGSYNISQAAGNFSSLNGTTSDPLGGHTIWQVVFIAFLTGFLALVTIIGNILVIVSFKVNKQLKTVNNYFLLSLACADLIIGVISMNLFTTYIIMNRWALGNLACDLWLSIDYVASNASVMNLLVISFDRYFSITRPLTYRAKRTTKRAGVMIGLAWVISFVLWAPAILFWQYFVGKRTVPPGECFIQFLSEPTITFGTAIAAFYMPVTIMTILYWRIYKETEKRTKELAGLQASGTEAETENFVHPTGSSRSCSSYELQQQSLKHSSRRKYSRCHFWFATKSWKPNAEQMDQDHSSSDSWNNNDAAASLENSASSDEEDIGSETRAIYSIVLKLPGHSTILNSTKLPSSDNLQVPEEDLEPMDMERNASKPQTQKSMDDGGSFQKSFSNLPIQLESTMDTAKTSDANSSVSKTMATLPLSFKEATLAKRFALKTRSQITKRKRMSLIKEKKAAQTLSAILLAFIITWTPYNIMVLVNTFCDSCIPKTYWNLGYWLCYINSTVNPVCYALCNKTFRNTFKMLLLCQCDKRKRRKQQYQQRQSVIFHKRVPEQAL
Description: (§1) European Patent Application No. 89200147 (Publication No. 327155) discloses a class of pyrazines, pyridazines or pyrimidines, and salts and prodrugs thereof, substituted on one of the ring carbon atoms thereof with a non-aromatic azacyclic or azabicyclic ring system; and independently substituted on each of the other ring carbon atoms with a substituent of low lipophilicity or a hydrocarbon substituent, which compounds stimulate cholinergic transmission.
(§2) 1. By the methods disclosed in J. Med. Chem. (1987), 30, 969-975 was determined the functional selectivity of compound (I): […]

[2] = target: T2, M2 (heart) (Cavia porcellus, UniProt H0VRN8); experiment: functional selectivity, heart M2 antagonist activity (methods of J. Med. Chem. 1987, 30, 969-975); assay type: biochemical, guinea pig
T2 construct: as measured in the guinea pig heart; from tissue; host or cells: guinea pig heart
T2 sequence (H0VRN8 1-466): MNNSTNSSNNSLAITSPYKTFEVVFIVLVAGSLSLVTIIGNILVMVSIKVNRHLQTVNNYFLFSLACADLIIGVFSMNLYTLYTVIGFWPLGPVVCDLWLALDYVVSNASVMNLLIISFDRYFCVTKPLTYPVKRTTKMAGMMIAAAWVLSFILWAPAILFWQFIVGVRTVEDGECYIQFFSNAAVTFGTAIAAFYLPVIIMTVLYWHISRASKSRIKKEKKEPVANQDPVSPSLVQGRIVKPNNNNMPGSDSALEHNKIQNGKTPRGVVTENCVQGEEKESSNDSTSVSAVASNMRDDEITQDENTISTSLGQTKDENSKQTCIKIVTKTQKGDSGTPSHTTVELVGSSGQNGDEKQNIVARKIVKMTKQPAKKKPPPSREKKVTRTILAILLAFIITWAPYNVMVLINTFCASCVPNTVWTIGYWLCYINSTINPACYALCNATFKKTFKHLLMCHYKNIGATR
Description: as §1, §2

[3] = target: T3, M1 (ganglion) (Rattus norvegicus, UniProt P08482); experiment: functional selectivity, ganglion M1 agonist activity (methods of J. Med. Chem. 1987, 30, 969-975); assay type: biochemical
T3 construct: as measured in the rat ganglion; from tissue; host or cells: rat ganglion
T3 sequence (P08482 1-460): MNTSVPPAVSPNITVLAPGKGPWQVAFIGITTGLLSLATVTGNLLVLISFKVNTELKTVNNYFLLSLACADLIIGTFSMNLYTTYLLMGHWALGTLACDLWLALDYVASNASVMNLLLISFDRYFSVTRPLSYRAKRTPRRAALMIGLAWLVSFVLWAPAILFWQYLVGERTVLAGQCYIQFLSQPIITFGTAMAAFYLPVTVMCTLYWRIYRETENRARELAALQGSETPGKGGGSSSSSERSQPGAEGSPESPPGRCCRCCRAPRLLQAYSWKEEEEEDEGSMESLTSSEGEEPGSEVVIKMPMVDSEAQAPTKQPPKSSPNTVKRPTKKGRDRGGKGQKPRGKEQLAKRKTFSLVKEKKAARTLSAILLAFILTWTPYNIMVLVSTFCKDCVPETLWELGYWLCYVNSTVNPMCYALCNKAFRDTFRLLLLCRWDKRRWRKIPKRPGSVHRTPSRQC
Description: as §1, §2

[4] = target: T4, M1 muscarinic receptor (Rattus norvegicus, UniProt P08482); experiment: M1 muscarinic activity (method of Newberry et al.); assay type: biochemical
T4 construct: as measured in the rat ganglion; from tissue
T4 sequence (P08482 1-460): T3 sequence (P08482 1-460)
Description: as §1
The following two compounds: 3(R)-[2-(6-trifluoromethyl) pyrazinyl]-1-azabicyclo[2.2.2]octane (Compound 1), and 3(R)-[2-(6chloro)pyrazinyl]-1-azabicyclo[2.2.2]octane (Compound 2) were tested for muscarinic activity using the method of Newberry, et al. (Br. J. Pharmacol, 1987, pp. 817-876). The specific M1 muscarinic activities of Compound 1 and Compound 2 were determined and the results are as follows: […]

[5] = test system: intraocular pressure; experiment: Glaucoma method: intraocular pressure in African Green monkeys; assay type: in vivo
Procedure: Male or female African Green monkeys (2.0-4.5 kg) were fasted following their afternoon feeding on the day prior to the experiment. The monkeys were anaesthetised in their cages with approximately 10 mg/kg i.m. ketamine HCl (Vetalar or Ketaset). Once sedated, the animals were restrained in monkey chairs and brought to the laboratory. One drop of 0.5% proparacaine (Ophthetic) was instilled into each eye. After 30 seconds, intraocular pressure (IOP) determinations were taken in each eye (control or "0" time reading) using a Digilab Modular One Pneuma Tonometer. Both eyes were then flushed with saline. Vehicle or test agent (0.0005-2.0%) was administered (25 μl) into the cul-de-sac of both eyes and the IOP was determined at 0.5 and 1.0 hour and at hourly intervals thereafter for up to 5 hours and compared to the control IOP. For ocular instillation, 0.5% hydroxyethylcellulose (HEC) was employed as the vehicle. Supplemental doses of 10 mg or more/animal i.m. ketamine HCl were given 3-5 minutes prior to IOP determinations. Proparacaine HCl (0.5%) (one drop/eye) was also instilled immediately prior to IOP determinations. Following the final IOP determination, both eyes were flushed liberally with saline and a sterile ophthalmic ointment (Ilotycin, erythromycin, 5 mg/gm) was applied. […] Pupil diameter was measured under standard laboratory lighting conditions using a millimeter ruler. […]

[6] = target: T5, M3 muscarinic receptor (Cavia porcellus, UniProt H0W1Z3); experiment: M3 muscarinic activity, ileum preparation (method of Freedman et al.); assay type: biochemical, guinea pig; settings: for M3 receptor action (in words): ileum assay
T5 construct: involving ileum preparation; from tissue; host or cells: ileum (guinea pig by b7)
T5 sequence (H0W1Z3 1-590): as the sequence (H0W1Z3 1-590) above

[7] = test system: M3 muscarinic receptor; experiment: as above; assay type: biochemical, guinea pig; settings: versus reference 6-Cl compound
[8] = listed as 6-C1 reference compound

FC(F)(F)c1cncc(C2CN3CCC2CC3)n1 (racemic) [(±) racemate, (±)-3-[2-(6-Trifluoromethylpyrazin)yl]-1-azabicyclo[2.2.2]octane]
Kb [1]: 79.4 nM
Kb [2]: 25.1 nM
EC50 [3]: 500 nM

FC(F)(F)c1cncc([C@@H]2CN3CCC2CC3)n1 [(-) base isomer]
Kb ([1]; ileum, antagonist, read-out: Ileum M3 (pA2) (converted)): 63.1 nM
Kb ([2]; heart, antagonist, read-out: Heart M2 (pA2) (converted)): 100 nM
Ganglion M1 (EC50) [3]: no agonist effect

FC(F)(F)c1cncc([C@H]2CN3CCC2CC3)n1 [(I): (+) base isomer, (R)-(+)-3-[2-(6-Trifluoromethylpyrazin)yl]-1-azabicyclo[2.2.2]octane]
EC50 [4]: 200 nM
M1 muscarinic activity (in words) ([4]; listed as 6-CF3 compound): retains M 1 muscarinic agonist activity comparable to that of the reference 6-C1 compound
M1 muscarinic activity (in words) ([4]; listed as Compound 1): possess M1 muscarinic activity
Change in IOP (maximum mm Hg change in intraocular pressure) ([5]; 0.05%, 25 μl into cul-de-sac of both eyes, up to 5 hours): -3.5 mm Hg
intraocular pressure lowering (in words) ([5]; glaucoma test): positive lowering of intraocular pressure
Kb [1]: 15.8 nM
Kb [2]: 15.8 nM
EC50 [3]: 200 nM
Kb [6]: 15.8 nM
M3 receptor action (in words) ([6]; listed as 6-CF3 compound): not an agonist at the M3 receptor; also recorded: not an agonist of M3 receptors
M3 receptor action (in words) ([6]; listed as Compound 1): acts as antagonist on M3 receptors
selectivity of action, M1 over M3 (in words) [7]: significantly greater selectivity of action

Clc1cncc([C@H]2CN3CCC2CC3)n1 [Compound 2, 3(R)-[2-(6chloro)pyrazinyl]-1-azabicyclo[2.2.2]octane, reference compound]
M1 muscarinic activity (in words) [4]: possess M1 muscarinic activity
M1 muscarinic activity (in words) [4, 8]: agonist on M1 receptors
EC50 [6]: 30 nM
M3 receptor action (in words) [6]: M3 receptor agonist
M3 receptor action (in words) [6, 8]: agonist on M3 receptors
M3 muscarinic activity pA2 ([6]; ileum preparation, antagonist): no measurable pA2 data
